Laboratory results from patent publication US20140314791A1, “METHODS OF TREATING CANCER” (DANA-FARBER CANCER INSTITUTE, INC., priority 2012, published 2014).

Tests used:
[1] = test system: Lkb1-null cells; test: IdU pulse-labeling after Dtymk knockdown, Lkb1-null; type: cell-based, mouse; conditions: for proportion of cells labeled with IdU: mean
Description: (E) Lkb1-wt and Lkb1-null cells in 6-well plates were transduced with shDtymk-1 or shGFP. Two sets of the cells were plated into multiple chamber slides: one was 2 days and the other was 3 days post transduction. After overnight culturing, the cells were labeled with 100 μM IdU for 20 min then fixed for indirect immunofluorescence staining with anti-BrdU. The data represent mean±SD for 200˜300 cells. Representative merged images of BrdU (red) and DAPI (blue) in the indicated cells are shown (F).
The lower expression of DTYMK in Lkb1-null cells causes the cells to be in jeopardy of DNA damage. To investigate how further knockdown of Dtymk and the consequent decrease in the dTTP pool could affect DNA metabolism, IdU pulse-labeling in Lkb1-wt and Lkb1-null cells was performed 2.5 and 3.5 days post-transduction with shDtymk-1. […] The representative images of Lkb1-wt and Lkb1-null cells co-stained for IdU and DAPI are shown (FIG. 5F). In addition, an overall lower proportion of labeled Lkb1-null than Lkb1-wt cells (43.1% vs. 57.7%) was observed, which may be related to the lower dNTP levels in Lkb1-null cells.

[2] = test system: dTMP and dTDP levels in Lkb1-wt 634 and Lkb1-null t4 cells; test: Metabolite analysis of dTMP and dTDP after Dtymk knockdown; type: cell-based, mouse; conditions: 3 days
Description: (A) Graph of dTMP and dTDP levels in Lkb1-wt 634, Lkb1-null t4, and human LKB1-deficient NSCLC A549 cells transduced with the indicated shRNA for 3 days. The data represent mean±SD for 6 replicates.
Cells were plated into 6-well plates in RPMI 1640/10% dialyzed FBS/1% pen/strep and medium was changed daily. When the cells reached 80% confluence, they were washed 3 times with warm washing buffer (75 mM ammonium carbonate, pH7.4), and plates were then immediately placed on dry ice. 500 μl of extraction buffer (80% methanol, −80° C.) was added to each well and the plates were kept on dry ice for 15 min. The supernatants were collected into 1.5 ml eppendorf tubes, and another 500 μl of cold extraction buffer was added to each well. After 15 min incubation on dry ice, the supernatant and the cells were collected and pooled with the previously collected supernatant. The tubes were spun at 3750 rpm/4° C. for 30 min, and then supernatants were transferred into fresh tubes and saved at −80° C. All reactions were performed with 5 replicates.
Prior to mass spectrometer injection, dried extracts were reconstituted in LCMS grade water. Non-targeted, flow-injection time-of-flight mass spectrometry was performed as described (Fuhrer et al., 2011). […] Mass spectra were recorded from m/z 50 to 1000 with a frequency of 1.4 spectra/s for 0.48 min using the highest resolving power (4 GHz HiRes). […]

Substance: shDtymk-1: shRNA hairpin CAAGCTTCTGAATTCCTACTT targeting Mouse Dtymk
- proportion of cells labeled with IdU ([1]; day 2.5 post infection): 17.2%
- proportion of cells labeled with IdU ([1]; day 3.5 post infection): 5.8%
- drop of proportion of IdU-labeled cells ([1]; in 3.5 days): 86.5%
- dTDP level [2]: moderate decrease
- dTMP level [2]: significant increase
